The results in this text go back to US8865697B2, “Crystalline (6R,7R)-7-{2-(5-amino-[1,2,4] thiadiazol-3-yl)-2-[(Z)-trityloxyimino]-acetylamino}-3-[(R)-1′-tert-butoxycarbonyl-2-oxo-[1,3′]bipyrrolidinyl-(3E)-ylidenemethyl]-8-oxo-5-thia-1-aza-bicyclo[4.2.0]oct-2-ene-2-carboxylic acid benzhydryl ester; its manufacture and use” (Basilea Pharmaceutica AG, priority 2008, dated 2014).

A short description of the series: Solubility in methylene chloride. Format: physicochemical. The settings on record: in methylene chloride at about 25° C. The method, then:
In methylene chloride, on the other hand, the DMSO solvate according to the present invention is readily soluble at temperatures in the range as indicated in the preceding paragraph (solubility about 70 g/l at about 25° C.). […] Therefore dissolving the DMSO solvate methylene chloride results in that the compound of formula (I) precipitates from this solution. This precipitate of the compound of formula (I) is generally again of greater purity than the DMSO solvate dissolved, and of such a particle size, that it can very fast be filtered or centrifuged off from the solvent. Furthermore, the precipitate of compound of formula (I) is generally in substantially crystalline form when precipitated from methylene chloride. More particularly, the precipitate comprises the compound of formula (I) at least partially in form of single-crystals.

In the case of `CC(C)(C)OC(=O)N1CC[C@@H](N2CC/C(=C\C3=C(C(=O)OC(c4ccccc4)c4ccccc4)N4C(=O)[C@@H](NC(=O)/C(=N\OC(c5ccccc5)(c5ccccc5)c5ccccc5)c5nsc(N)n5)[C@H]4SC3)C2=O)C1` [DMSO solvate], the solubility entry is reported as “about 70 g/l”.

In the case of `CC(C)(C)OC(=O)N1CC[C@@H](N2CC/C(=C\C3=C(C(=O)OC(c4ccccc4)c4ccccc4)N4C(=O)[C@@H](NC(=O)/C(=N\OC(c5ccccc5)(c5ccccc5)c5ccccc5)c5nsc(N)n5)[C@H]4SC3)C2=O)C1` [compound of formula (I), (6R,7R)-7-{2-(5-Amino-[1,2,4]thiadiazol-3-yl)-2-[(Z)-trityloxyimino]-acetylamino}-3-[(R)-1′-tert-butoxycarbonyl-2-oxo-[1,3′]bipyrrolidinyl-3E-ylidenemethyl]-8-oxo-5-thia-1-aza-bicyclo[4.2.0]oct-2-ene-2-carboxylic acid benzhydryl ester], the solubility result is on record as “about 8 g/l”.
